The text below walks through data of patent publication US20260285855A1, “HETEROARYL DERIVATIVES AS DDRS INHIBITORS” (CHIESI FARMACEUTICI S.P.A., priority 2023, published 2026).

The target in one assay is T1, DDR2 (Homo sapiens, UniProt Q16832).
T1 construct: purchased Life Technologies
T1 sequence (Q16832 22-855): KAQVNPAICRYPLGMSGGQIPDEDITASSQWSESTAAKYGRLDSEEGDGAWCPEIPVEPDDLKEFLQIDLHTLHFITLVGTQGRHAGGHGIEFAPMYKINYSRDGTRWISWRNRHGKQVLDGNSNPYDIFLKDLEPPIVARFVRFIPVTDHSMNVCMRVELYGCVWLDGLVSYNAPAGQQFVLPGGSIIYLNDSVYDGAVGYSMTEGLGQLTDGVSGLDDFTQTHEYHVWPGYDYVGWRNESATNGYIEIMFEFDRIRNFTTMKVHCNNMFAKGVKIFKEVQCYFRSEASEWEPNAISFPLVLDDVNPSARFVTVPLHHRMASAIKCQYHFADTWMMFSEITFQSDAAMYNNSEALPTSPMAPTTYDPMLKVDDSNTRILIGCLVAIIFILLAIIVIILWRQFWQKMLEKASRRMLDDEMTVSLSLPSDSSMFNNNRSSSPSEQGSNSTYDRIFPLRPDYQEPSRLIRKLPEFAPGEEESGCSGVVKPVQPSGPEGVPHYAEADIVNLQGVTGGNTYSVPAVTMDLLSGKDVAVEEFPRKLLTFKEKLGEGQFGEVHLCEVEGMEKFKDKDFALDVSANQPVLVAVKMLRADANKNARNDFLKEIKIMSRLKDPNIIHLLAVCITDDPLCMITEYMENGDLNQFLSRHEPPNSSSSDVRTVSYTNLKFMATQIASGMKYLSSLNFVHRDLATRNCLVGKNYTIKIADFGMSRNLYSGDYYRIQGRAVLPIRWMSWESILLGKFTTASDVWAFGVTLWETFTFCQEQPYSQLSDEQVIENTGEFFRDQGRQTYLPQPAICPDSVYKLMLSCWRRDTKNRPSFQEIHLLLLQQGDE
The assay can be described thus: LanthaScreen Europium Kinase Binding assay, DDR2. The conditions noted are these: 5 nM DDR2, 10 nM Kinase Tracer 178, 1 h at rt; Ki from IC50 by Cheng-Prusoff; read-out: Ki DDR2. The method, then: (§1) DDR1 and DDR2 binding assays were performed using Life Technologies LanthaScreen™ Europium Kinase Binding assay. […] IC50 values were determined in GraphPad Prism 7.0 software, using 4 parameter model: log (inhibitor) vs. response. IC50 values were converted in Ki using the Cheng-Prusoff equation (Ki-IC50/(1+ [Tracer]/Kd).
(Time-resolved FRET reads energy transfer from a long-lived donor to a nearby acceptor.)

Another assay has as its target T2, DDR1 (Homo sapiens, UniProt Q08345).
T2 construct: purchased Carna Biosciences
The assay is described as follows: LanthaScreen Europium Kinase Binding assay, DDR1. The conditions noted are these: 5 nM DDR1, 20 nM Kinase Tracer 178, 1 h at rt; Ki from IC50 by Cheng-Prusoff; read-out: Ki DDR1. The procedure: as §1

The structures appear in SMILES notation.

T2 sequence (Q08345 19-913): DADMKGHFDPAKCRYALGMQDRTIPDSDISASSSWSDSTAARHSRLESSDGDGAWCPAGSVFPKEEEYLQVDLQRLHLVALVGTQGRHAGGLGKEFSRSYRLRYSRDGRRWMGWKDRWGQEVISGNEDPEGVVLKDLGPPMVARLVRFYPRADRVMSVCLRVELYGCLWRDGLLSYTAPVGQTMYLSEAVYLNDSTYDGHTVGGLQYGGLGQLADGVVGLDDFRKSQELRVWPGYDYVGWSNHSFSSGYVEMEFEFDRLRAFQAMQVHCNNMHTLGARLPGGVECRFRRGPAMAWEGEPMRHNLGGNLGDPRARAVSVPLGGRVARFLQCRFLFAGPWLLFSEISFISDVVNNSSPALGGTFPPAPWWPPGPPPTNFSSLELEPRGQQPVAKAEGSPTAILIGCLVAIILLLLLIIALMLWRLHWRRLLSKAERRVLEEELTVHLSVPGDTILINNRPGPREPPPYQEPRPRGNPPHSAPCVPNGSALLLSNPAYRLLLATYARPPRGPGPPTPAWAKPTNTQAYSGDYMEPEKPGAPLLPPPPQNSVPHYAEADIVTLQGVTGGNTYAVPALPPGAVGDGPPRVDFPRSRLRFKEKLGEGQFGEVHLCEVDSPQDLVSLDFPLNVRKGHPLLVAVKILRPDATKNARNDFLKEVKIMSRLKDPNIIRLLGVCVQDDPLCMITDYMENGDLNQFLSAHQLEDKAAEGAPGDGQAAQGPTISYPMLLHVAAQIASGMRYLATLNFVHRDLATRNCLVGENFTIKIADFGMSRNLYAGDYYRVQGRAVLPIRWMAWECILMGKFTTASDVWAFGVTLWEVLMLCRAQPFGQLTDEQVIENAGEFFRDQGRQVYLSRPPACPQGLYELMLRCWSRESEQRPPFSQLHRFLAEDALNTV

The Ki is the equilibrium dissociation constant of an inhibitor or competing ligand from its target. As to `O=C(Nc1cccc(SC(F)(F)F)c1)NC1CC2(C1)CN(C(=O)c1ccnc3[nH]ncc13)C2` [Example 162, 1-(2-(1H-pyrazolo[3,4-b]pyridine-4-carbonyl)-2-azaspiro[3.3]heptan-6-yl)-3-(3-((trifluoromethyl)thio)phenyl)urea], the Ki at DDR2 and at DDR1 was less than 5 nM throughout.
In the case of `O=C(Nc1ccc(C(F)(F)F)cn1)NC1CC2(C1)CN(c1cnc3[nH]ncc3c1)C2` [Example 163, 1-(2-(1H-pyrazolo[3,4-b]pyridin-5-yl)-2-azaspiro[3.3]heptan-6-yl)-3-(5-(trifluoromethyl)pyridin-2-yl)urea], the Ki on DDR2 and on DDR1 was 5 to 25 nM throughout.
In the case of `CN(C(=O)Nc1cc(C(F)F)ccn1)C1CC2(C1)CN(C(=O)c1cnn3ccn(C)c13)C2` [Example 164, 3-(4-(difluoromethyl)pyridin-2-yl)-1-methyl-1-(2-(1-methyl-1H-imidazo[1,2-b]pyrazole-7-carbonyl)-2-azaspiro[3.3]heptan-6-yl)urea], the Ki on DDR2 is 25 to 100 nM; at DDR1 it was less than 5 nM.
For `Cc1ncc(C(F)(F)F)cc1NC(=O)NC1CC2(C1)CN(C(=O)c1cnn3ccsc13)C2` [Example 165, 1-(2-methyl-5-(trifluoromethyl)pyridin-3-yl)-3-(2-(pyrazolo[5,1-b]thiazole-7-carbonyl)-2-azaspiro[3.3]heptan-6-yl)urea], the figures for the Ki on DDR2 and at DDR1 were 5 to 25 nM and less than 5 nM, respectively.
As to `O=C(Nc1cccc(C(F)(F)F)c1)NC1CC2(C1)CN(C(=O)c1cnn3ccn(CC4COC4)c13)C2` [Example 166, 1-(2-(1-(oxetan-3-ylmethyl)-1H-imidazo[1,2-b]pyrazole-7-carbonyl)-2-azaspiro[3.3]heptan-6-yl)-3-(3-(trifluoromethyl)phenyl)urea], the results for the Ki on DDR2 and at DDR1 were 5 to 25 nM and less than 5 nM, respectively.
As for `O=C(Nc1cccc(C(F)(F)F)c1)NC1CC2(C1)CN(C(=O)c1cnn3ccn(C4COC4)c13)C2` [Example 167, 1-(2-(1-(oxetan-3-yl)-1H-imidazo[1,2-b]pyrazole-7-carbonyl)-2-azaspiro[3.3]heptan-6-yl)-3-(3-(trifluoromethyl)phenyl)urea], the inhibitory constant (Ki) is 5 to 25 nM at DDR2 and less than 5 nM on DDR1.
Regarding `Cn1ccn2ncc(C(=O)N3CC4(CC(NC(=O)Nc5cc(C(F)(F)F)cc(C#N)n5)C4)C3)c12` [Example 168, 1-(6-cyano-4-(trifluoromethyl)pyridin-2-yl)-3-(2-(1-methyl-1H-imidazo[1,2-b]pyrazole-7-carbonyl)-2-azaspiro[3.3]heptan-6-yl)urea], the Ki on DDR2 was 5 to 25 nM; on DDR1 it was less than 5 nM.
The matching figures for `CN(C(=O)Nc1cncc(C(F)(F)F)c1)C1CC2(C1)CN(C(=O)c1cnn3ccn(C)c13)C2` [Example 169, 1-methyl-1-(2-(1-methyl-1H-imidazo[1,2-b]pyrazole-7-carbonyl)-2-azaspiro[3.3]heptan-6-yl)-3-(5-(trifluoromethyl)pyridin-3-yl)urea]: 5 to 25 nM and less than 5 nM.
For `CN(C(=O)Nc1cc(C(F)(F)F)ncn1)C1CC2(C1)CN(C(=O)c1cnn3ccn(C)c13)C2` [Example 170, 1-methyl-1-(2-(1-methyl-1H-imidazo[1,2-b]pyrazole-7-carbonyl)-2-azaspiro[3.3]heptan-6-yl)-3-(6-(trifluoromethyl)pyrimidin-4-yl)urea], the inhibition constant (Ki) on DDR2 is greater than 100 nM; at DDR1, 5 to 25 nM.
The matching figures for `Cc1ncc(C(F)(F)F)cc1NC(=O)NC1CC2(C1)CN(C(=O)c1cnn3ccn(C)c13)C2` [Example 171, 1-(2-(1-methyl-1H-imidazo[1,2-b]pyrazole-7-carbonyl)-2-azaspiro[3.3]heptan-6-yl)-3-(2-methyl-5-(trifluoromethyl)pyridin-3-yl)urea]: 5 to 25 nM and less than 5 nM.
For `CN(C(=O)Nc1cncc(OC(F)(F)F)c1)C1CC2(C1)CN(C(=O)c1cnn3ccn(C)c13)C2` [Example 172, 1-methyl-1-(2-(1-methyl-1H-imidazo[1,2-b]pyrazole-7-carbonyl)-2-azaspiro[3.3]heptan-6-yl)-3-(5-(trifluoromethoxy)pyridin-3-yl)urea] the same measures were 5 to 25 nM and less than 5 nM.
As to `CN(C(=O)Nc1cncc(C(C)(F)F)c1)C1CC2(C1)CN(C(=O)c1cnn3ccn(C)c13)C2` [Example 173, 3-(5-(1,1-difluoroethyl)pyridin-3-yl)-1-methyl-1-(2-(1-methyl-1H-imidazo[1,2-b]pyrazole-7-carbonyl)-2-azaspiro[3.3]heptan-6-yl)urea], the figures for the Ki at DDR2 and at DDR1 were 25 to 100 nM and less than 5 nM, respectively.
As for `Cn1ccn2ncc(C(=O)N3CC4(CC(N(CC(F)(F)F)C(=O)Nc5cccc(C(F)(F)F)c5)C4)C3)c12` [Example 174, 1-(2-(1-methyl-1H-imidazo[1,2-b]pyrazole-7-carbonyl)-2-azaspiro[3.3]heptan-6-yl)-1-(2,2,2-trifluoroethyl)-3-(3-(trifluoromethyl)phenyl)urea], the inhibition constant Ki was 5 to 25 nM at DDR2 and less than 5 nM on DDR1.
Regarding `CN(C(=O)Nc1cncc(C(F)(F)F)c1)C1CC2(C1)CN(C(=O)c1cnn3ccncc13)C2` [Example 175, 1-methyl-1-(2-(pyrazolo[1,5-a]pyrazine-3-carbonyl)-2-azaspiro[3.3]heptan-6-yl)-3-(5-(trifluoromethyl)pyridin-3-yl)urea], the inhibitory constant (Ki) at DDR2 was 25 to 100 nM; on DDR1, 5 to 25 nM.
Consider `CN(C(=O)Nc1cncc(OC(F)(F)F)c1)C1CC2(C1)CN(C(=O)c1cnn3ccncc13)C2` [Example 176, 1-methyl-1-(2-(pyrazolo[1,5-a]pyrazine-3-carbonyl)-2-azaspiro[3.3]heptan-6-yl)-3-(5-(trifluoromethoxy)pyridin-3-yl)urea], for which the inhibition constant (Ki) at DDR2 lay within 25 to 100 nM; on DDR1, 5 to 25 nM.
Consider `CN(C(=O)Nc1cc(OC(F)F)ccn1)C1CC2(C1)CN(C(=O)c1cnn3ccn(C)c13)C2` [Example 177, 3-(4-(difluoromethoxy)pyridin-2-yl)-1-methyl-1-(2-(1-methyl-1H-imidazo[1,2-b]pyrazole-7-carbonyl)-2-azaspiro[3.3]heptan-6-yl)urea], for which the Ki at DDR2 is 25 to 100 nM; on DDR1, less than 5 nM.
Turning to `CN(C(=O)Nc1cc(C(F)(F)F)ncn1)C1CC2(C1)CN(C(=O)c1cnn3ccsc13)C2` [Example 178, 1-methyl-1-(2-(pyrazolo[5,1-b]thiazole-7-carbonyl)-2-azaspiro[3.3]heptan-6-yl)-3-(6-(trifluoromethyl)pyrimidin-4-yl)urea], the inhibition constant (Ki) on DDR2 was 25 to 100 nM; at DDR1, less than 5 nM.
With `CN(C(=O)Nc1cncc(OC(F)(F)F)c1)C1CC2(C1)CN(C(=O)c1cnn3ccsc13)C2` [Example 179, 1-methyl-1-(2-(pyrazolo[5,1-b]thiazole-7-carbonyl)-2-azaspiro[3.3]heptan-6-yl)-3-(5-(trifluoromethoxy)pyridin-3-yl)urea], the Ki at DDR2 is 5 to 25 nM; at DDR1, less than 5 nM.
Consider `Cc1ncc(NC(=O)N(C)C2CC3(C2)CN(C(=O)c2cnn4ccn(C)c24)C3)cc1C(F)(F)F` [Example 180, 1-methyl-1-(2-(1-methyl-1H-imidazo[1,2-b]pyrazole-7-carbonyl)-2-azaspiro[3.3]heptan-6-yl)-3-(6-methyl-5-(trifluoromethyl)pyridin-3-yl)urea], for which the inhibition constant (Ki) was 5 to 25 nM on DDR2 and less than 5 nM at DDR1.
As to `Cc1ncc(NC(=O)NC2CC3(C2)CN(C(=O)c2cnn4ccn(C)c24)C3)cc1C(F)(F)F` [Example 181, 1-(2-(1-methyl-1H-imidazo[1,2-b]pyrazole-7-carbonyl)-2-azaspiro[3.3]heptan-6-yl)-3-(6-methyl-5-(trifluoromethyl)pyridin-3-yl)urea], the values for the inhibitory constant (Ki) at DDR2 and on DDR1 were 5 to 25 nM and less than 5 nM, respectively.
On to `Cn1cc(-c2ccc3c(C(=O)N4CC5(CC(NC(=O)Nc6cccc(C(F)(F)F)c6)C5)C4)cnn3c2)cn1` [Example 182, 1-(2-(6-(1-methyl-1H-pyrazol-4-yl)pyrazolo[1,5-a]pyridine-3-carbonyl)-2-azaspiro[3.3]heptan-6-yl)-3-(3-(trifluoromethyl)phenyl)urea], for which the Ki at DDR2 and on DDR1 was less than 5 nM throughout.
With `O=C(Nc1cccc(C(F)(F)F)c1)NC1CC2(C1)CN(C(=O)c1cnn3ccc(N4CCS(=O)(=O)CC4)cc13)C2` [Example 183, 1-(2-(5-(1,1-dioxidothiomorpholino)pyrazolo[1,5-a]pyridine-3-carbonyl)-2-azaspiro[3.3]heptan-6-yl)-3-(3-(trifluoromethyl)phenyl)urea], the results for the inhibitory constant (Ki) on DDR2 and on DDR1 were 5 to 25 nM and less than 5 nM, respectively.
